Measured values as given in PubChem BioAssay AID1259407 (Chemical Carcinogenesis Research Information System (CCRIS), 2018).
Activity calls are given as the source filed them. How the calls were made is not given here.

Test system: CCRIS mutagenicity, Ames/micronucleus/aberration tests
Test: CCRIS mutagenicity studies
Details: Method: STANDARD PLATE

Measured: mutagenic call

CC1(C)C(C=C(Cl)Cl)C1C(=O)OC(C#N)c1cccc(Oc2ccccc2)c1 (stereo not given)
inactive: Test System: AMES SALMONELLA TYPHIMURIUM, Strain/Indicator: TA97, Metabolic Activation: BARLEY, HOMOGENATES inactive; negative | Test System: AMES SALMONELLA TYPHIMURIUM, Strain/Indicator: TA97, Metabolic Activation: NONE inactive; negative | Test System: AMES SALMONELLA TYPHIMURIUM, Strain/Indicator: TA97, Metabolic Activation: RAT, LIVER, S-9, DELOR 103 inactive; negative | Test System: AMES SALMONELLA TYPHIMURIUM, Strain/Indicator: TA98, Metabolic Activation: BARLEY, HOMOGENATES inactive; negative | Test System: AMES SALMONELLA TYPHIMURIUM, Strain/Indicator: TA98, Metabolic Activation: NONE inactive; negative | Test System: AMES SALMONELLA TYPHIMURIUM, Strain/Indicator: TA98, Metabolic Activation: RAT, LIVER, S-9, AROCLOR 1254 inactive; negative | Test System: AMES SALMONELLA TYPHIMURIUM, Strain/Indicator: TA98, Metabolic Activation: RAT, LIVER, S-9, DELOR 103 inactive; negative | Test System: AMES SALMONELLA TYPHIMURIUM, Strain/Indicator: TA100, Metabolic Activation: BARLEY, HOMOGENATES inactive; negative | Test System: AMES SALMONELLA TYPHIMURIUM, Strain/Indicator: TA100, Metabolic Activation: NONE inactive; negative | Test System: AMES SALMONELLA TYPHIMURIUM, Strain/Indicator: TA100, Metabolic Activation: RAT, LIVER, S-9, AROCLOR 1254 inactive; negative | Test System: AMES SALMONELLA TYPHIMURIUM, Strain/Indicator: TA100, Metabolic Activation: RAT, LIVER, S-9, DELOR 103 inactive; negative | Test System: AMES SALMONELLA TYPHIMURIUM, Strain/Indicator: TA1535, Metabolic Activation: BARLEY, HOMOGENATES inactive; negative | Test System: AMES SALMONELLA TYPHIMURIUM, Strain/Indicator: TA1535, Metabolic Activation: NONE inactive; negative | Test System: AMES SALMONELLA TYPHIMURIUM, Strain/Indicator: TA1535, Metabolic Activation: RAT, LIVER, S-9, AROCLOR 1254 inactive; negative | Test System: AMES SALMONELLA TYPHIMURIUM, Strain/Indicator: TA1535, Metabolic Activation: RAT, LIVER, S-9, DELOR 103 inactive; negative | Test System: AMES SALMONELLA TYPHIMURIUM, Strain/Indicator: TA1537, Metabolic Activation: NONE inactive; negative | Test System: AMES SALMONELLA TYPHIMURIUM, Strain/Indicator: TA1537, Metabolic Activation: RAT, LIVER, S-9, AROCLOR 1254 inactive; negative | Test System: AMES SALMONELLA TYPHIMURIUM, Strain/Indicator: TA1538, Metabolic Activation: NONE inactive; negative | Test System: AMES SALMONELLA TYPHIMURIUM, Strain/Indicator: TA1538, Metabolic Activation: RAT, LIVER, S-9, DELOR 103 inactive; negative | Test System: CHINESE HAMSTER V-79, Strain/Indicator: V-79/6-THIOGUANINE, Metabolic Activation: NONE inactive; negative | Test System: CHINESE HAMSTER V-79, Strain/Indicator: V-79/6-THIOGUANINE, Metabolic Activation: RAT HEPATOCYTES inactive; negative | Test System: CHINESE HAMSTER V-79, Strain/Indicator: V-79/OUABAIN, Metabolic Activation: NONE inactive; negative | Test System: CHINESE HAMSTER V-79, Strain/Indicator: V-79/OUABAIN, Metabolic Activation: RAT HEPATOCYTES inactive; negative | Test System: E. COLI, Strain/Indicator: WP2, Metabolic Activation: NONE inactive; negative | Test System: E. COLI, Strain/Indicator: WP2, Metabolic Activation: RAT, LIVER, S-9, AROCLOR 1254 inactive; negative
